According to patent publication US20230330229A1, “METHODS FOR IMAGE-GUIDED RADIOTHERAPY” (UNIVERSITE CLAUDE BERNARD LYON 1, priority 2020, published 2023):

Assays:
[1] = Detection of solutions in Eppendorf by MRIdian MR-linac at 0.35 T; conditions: spin echo, solutions in PPI water
Procedure: ViewRay Linac MRI displaying magnetic field of 0.35 T (MRIdian MR-linac, ViewRay Inc., Oakwood, USA) (S. Klüter, Clinical and Translational Radiation Oncology, 2019), samples with different concentrations in gadolinium were tested and compared to Multihance (Bracco) using the Torso coil (two surface flexible 6-channel coils array).
The ViewRay MRIdian system is clinically used for external radiotherapy purpose, thus it is a very appropriate device dedicated to the use of the AGuIX. A 2D coronal spin echo sequence was used: TR=400 ms, TE=20 ms, Flip Angle=90°, Bandwidth=57. Hz/Px, Matrix=512×512, Slice Thickness=3 mm, Field Of View=350×350×263 mm, Number of Averages=5. The total acquisition time was 12:30 minutes.
Solutions of multihance and AGuIX were prepared by dilution in PPI water from stock solutions of 0.5 mol·L^−1 and 100 g·L^−1 respectively 1 hour before imaging and placed in Eppendorf.

[2] = system: brain metastases; test: MRI signal enhancement in brain metastases (Nano-Rad phase I-b trial, 3 Tesla, 3D T1-weighted); assay type: in vivo, human; conditions: D0, 15 min after injection, 0.1 mmol/kg i.v., metastases >1 cm
Excerpt: This study is part of a prospective dose escalation phase I-b clinical trial to evaluate the tolerance of the intravenous administration of radiosensitizing AGuIX nanoparticles in combination with whole brain radiotherapy for the treatment of brain metastases. The Nano-Rad trial (Radiosensitization of Multiple Brain Metastases Using AGuIX Gadolinium Based Nanoparticles) was registered as NCT02820454. Here, we report the findings of the MRI protocol applied to the 15 recruited patients. […]
MRI analyses were performed using an in-house computer program called MP3 (https://github.com/nifm-gin/MP3) developed by the GIN Laboratory (Grenoble, France) and running under Matlab® software. Image analyses include counting and measurements of metastases, quantification of contrast enhancement, relaxation times and concentration of nanoparticles. […] The MRI enhancement, expressed in percentage, was defined as the ratio of the MRI signal amplitude post contrast agent administration over the MRI signal amplitude pre contrast agent administration; the MRI signal amplitude being measured in the 3D T1-weighted image dataset. […]

[3] = magnetic field of 3 Tesla, literature reference; cited from earlier work

| Structure (SMILES) | Detection sensitivity (lowest detected [Gd^3+]) [1] | MRI enhancement averaged over all measurable metastases [2] | r1 per Gd^3+ ion [3] |
| --- | --- | --- | --- |
| O=C([O-])CN(CCN(CC(=O)[O-])CC(=O)[O-])CCN(CC(=O)[O-])C(COCc1ccccc1)C(=O)[O-].[Gd+3].[H+].[H+] (stereo not drawn) [Multihance, gadobenic acid] | 25 µM |  |  |
| CNC[C@H](O)[C@@H](O)[C@H](O)[C@H](O)CO.O=C([O-])CN1CCN(CC(=O)[O-])CCN(CC(=O)O)CCN(CC(=O)[O-])CC1.[Gd+3] [Dotarem, gadoterate meglumine] |  | 182.9±116.2% | 3.5 mM⁻¹ s⁻¹ |
